PubChem BioAssay AID1963426 (Molecular Pharmacology Branch, DTP, NCI, 2024)

Test system: 186277-243-T-J2-PDC complex spheroid growth, % test/control
Experiment: Anticancer human tumor 186277-243-T-J2-PDC patient-derived colon adenocarcinoma cell line growth inhibition [Asc]
Settings: for IC50: curve of first compound; for viability, T/C: stronger effect = lower value
How it was run: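 Complex spheroids combining tumor cells with HUVEC endothelial cells and human MSCs, at 37 degrees C, 5% CO2; agents tested alone or combined, half-log dilutions from at or near clinical Cmax, or 10 microM if Cmax unknown.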

[1] = second compound 0.03 µM, first compound 0.0316 µM
[2] = second compound 0.03 µM, first compound 0.1 µM
[3] = second compound 0.03 µM, first compound 0.316 µM
[4] = second compound 0.03 µM, first compound 1 µM
[5] = second compound 0.03 µM, first compound 3.16 µM
[6] = second compound 0.03 µM, first compound 10 µM
[7] = second compound 0.0949 µM, first compound 0.0316 µM
[8] = second compound 0.0949 µM, first compound 0.1 µM
[9] = second compound 0.0949 µM, first compound 0.316 µM
[10] = second compound 0.0949 µM, first compound 1 µM
[11] = second compound 0.0949 µM, first compound 3.16 µM
[12] = second compound 0.0949 µM, first compound 10 µM
[13] = second compound 0.3 µM, first compound 0.0316 µM
[14] = second compound 0.3 µM, first compound 0.1 µM
[15] = second compound 0.3 µM, first compound 0.316 µM
[16] = second compound 0.3 µM, first compound 1 µM
[17] = second compound 0.3 µM, first compound 3.16 µM
[18] = second compound 0.3 µM, first compound 10 µM
[19] = second compound 0.949 µM, first compound 0.0316 µM
[20] = second compound 0.949 µM, first compound 0.1 µM
[21] = second compound 0.949 µM, first compound 0.316 µM
[22] = second compound 0.949 µM, first compound 1 µM
[23] = second compound 0.949 µM, first compound 3.16 µM
[24] = second compound 0.949 µM, first compound 10 µM
[25] = second compound 3 µM, first compound 0.0316 µM
[26] = second compound 3 µM, first compound 0.1 µM
[27] = second compound 3 µM, first compound 0.316 µM
[28] = second compound 3 µM, first compound 1 µM
[29] = second compound 3 µM, first compound 3.16 µM
[30] = second compound 3 µM, first compound 10 µM
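Further: spheroids exposed to agents for 7 days.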
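Wherever viability, T/C is given: 100% = DMSO vehicle control wells.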

Row | Compound | IC50 (second compound 0.03 µM) | IC50 (second compound 0.0949 µM) | IC50 (second compound 0.3 µM) | IC50 (second compound 0.949 µM) | IC50 (second compound 3 µM) | viability, T/C [1] | viability, T/C [2] | viability, T/C [3] | viability, T/C [4] | viability, T/C [7] | viability, T/C [8] | viability, T/C [9] | viability, T/C [10] | viability, T/C [13] | viability, T/C [14] | viability, T/C [15] | viability, T/C [16] | viability, T/C [19] | viability, T/C [20] | viability, T/C [21] | further results
1 | C#Cc1c(F)ccc2cc(O)cc(-c3ncc4c(N5CC6CCC(C5)N6)nc(OCC56CCCN5CC(F)C6)nc4c3F)c12 (stereo not given) + CCN1C(C(=O)NC23CCC(C(=O)O)(CC2)CC3)C(c2cccc(Cl)c2F)C2(C(=O)Nc3cc(Cl)ccc32)C12CCCCC2 | 119 nM | 35.4 nM | < 31.6 nM | < 31.6 nM | < 31.6 nM | 57.1% | 55.3% | 24.1% | 7.49% | 52.6% | 26.3% | 7.13% | 3.79% | 27.4% | 8.1% | 3.14% | 2.06% | 16.2% | 5.72% | 2.81% | viability, T/C [5]: 4.76%; viability, T/C [6]: 2.76%; viability, T/C [11]: 2.21%; viability, T/C [12]: 2.17%; viability, T/C [17]: 1.62%; viability, T/C [18]: 1.41%; viability, T/C [22]: 2.32%; viability, T/C [23]: 1.53%; viability, T/C [24]: 1.08%; viability, T/C [25]: 7.02%; viability, T/C [26]: 3.62%; viability, T/C [27]: 2.69%; viability, T/C [28]: 2.2%; viability, T/C [29]: 1.71%; viability, T/C [30]: 1.33%
2 | C=C(F)C(=O)N1CCN(c2nc(OCC3CCCN3C)nc3c2CCN(c2cccc4cccc(Cl)c24)C3)CC1CC#N (stereo not given) + CCN1C(C(=O)NC23CCC(C(=O)O)(CC2)CC3)C(c2cccc(Cl)c2F)C2(C(=O)Nc3cc(Cl)ccc32)C12CCCCC2 | 4750 nM | 4630 nM | 4000 nM | 1610 nM | < 31.6 nM | 123% | 107% | 109% | 99.8% | 92.7% | 92.5% | 103% | 88.6% | 76.3% | 82.5% | 86.1% | 73.2% | 58.2% | 57.5% | 61.4% | viability, T/C [5]: 79.5%; viability, T/C [6]: 0.44%; viability, T/C [11]: 75.2%; viability, T/C [12]: 0.22%; viability, T/C [17]: 63.7%; viability, T/C [18]: 0.17%; viability, T/C [22]: 64%; viability, T/C [23]: 35.6%; viability, T/C [24]: 0.22%; viability, T/C [25]: 38.4%; viability, T/C [26]: 37.3%; viability, T/C [27]: 38.8%; viability, T/C [28]: 37%; viability, T/C [29]: 23.6%; viability, T/C [30]: 0.69%
3 | C=CC(=O)N1CCN(c2nc(=O)n(-c3c(C)ccnc3C(C)C)c3nc(-c4c(O)cccc4F)c(F)cc23)C(C)C1 (stereo not given) + CCN1C(C(=O)NC23CCC(C(=O)O)(CC2)CC3)C(c2cccc(Cl)c2F)C2(C(=O)Nc3cc(Cl)ccc32)C12CCCCC2 | > 10000 nM | > 10000 nM | > 10000 nM | 3740 nM | < 31.6 nM | 124% | 119% | 119% | 127% | 119% | 92.9% | 112% | 94.5% | 74.9% | 82.2% | 81.2% | 79.4% | 62.5% | 59.3% | 58.1% | viability, T/C [5]: 122%; viability, T/C [6]: 125%; viability, T/C [11]: 113%; viability, T/C [12]: 103%; viability, T/C [17]: 74.7%; viability, T/C [18]: 69.1%; viability, T/C [22]: 57.3%; viability, T/C [23]: 51.4%; viability, T/C [24]: 42%; viability, T/C [25]: 33.2%; viability, T/C [26]: 36%; viability, T/C [27]: 35.9%; viability, T/C [28]: 36.5%; viability, T/C [29]: 41%; viability, T/C [30]: 32.7%
4 | CNC(C)C(=O)NC1CN(S(=O)(=O)c2cccc(S(=O)(=O)N3CCC4CCC(C(=O)NC(c5ccccc5)c5ccccc5)N4C(=O)C(NC(=O)C(C)NC)C3)c2)CCC2CCC(C(=O)NC(c3ccccc3)c3ccccc3)N2C1=O (stereo not given) + CCN1C(C(=O)NC23CCC(C(=O)O)(CC2)CC3)C(c2cccc(Cl)c2F)C2(C(=O)Nc3cc(Cl)ccc32)C12CCCCC2 | > 1000 nM | > 1000 nM | > 1000 nM | 415 nM | < 3.16 nM | 113% | 102% | 113% | 112% | 111% | 94.9% | 82.5% | 84.9% | 87% | 77.2% | 77.2% | 56.6% | 56.7% | 55.7% | 55.6% | viability, T/C (second compound 0.03 µM, first compound 0.00316 µM): 101%; viability, T/C (second compound 0.03 µM, first compound 0.01 µM): 131%; viability, T/C (second compound 0.0949 µM, first compound 0.00316 µM): 115%; viability, T/C (second compound 0.0949 µM, first compound 0.01 µM): 114%; viability, T/C (second compound 0.3 µM, first compound 0.00316 µM): 73.6%; viability, T/C (second compound 0.3 µM, first compound 0.01 µM): 79.6%; viability, T/C (second compound 0.949 µM, first compound 0.00316 µM): 60.8%; viability, T/C (second compound 0.949 µM, first compound 0.01 µM): 54.8%; viability, T/C [22]: 32.4%; viability, T/C (second compound 3 µM, first compound 0.00316 µM): 36.9%; viability, T/C (second compound 3 µM, first compound 0.01 µM): 37.6%; viability, T/C [25]: 36.2%; viability, T/C [26]: 31.5%; viability, T/C [27]: 29.6%; viability, T/C [28]: 28.8%
